Data: patent publication US10214507B2, “Carbazole-containing amides, carbamates, and ureas as cryptochrome modulators” (Reset Therapeutics, Inc., priority 2014, dated 2019)

Each molecule was assayed on stable U20S reporter cells harboring Per2-dLuc (assay: Per2 assay for evaluating the potency of test compounds (circadian luciferase reporter)). Conditions: amplitude of Per2-dLuc luminescence vs log concentration.
Type: cell-based
Description: Compounds were screened by using a high-throughput circadian assay system as previously described in Zhang, E. E. et al. Cell, 2009, 139, 199-210. In brief, stable U20S reporter cells harboring Per2-dLuc were plated at a density of 30,000 cells/well in Corning 96-well, solid white, flat bottom, TC-treated microplates (Corning®), and incubated for 48 hours at 37° C. in the presence of 5% CO2 in a medium of Dulbecco's Modified Eagle Medium (DMEM) supplemented with 10% fetal bovine serum (FBS) and penicillin (100 units/mL)-streptomycin (100 μg/mL). […] DMSO stocks are then serially diluted in DMSO, typically diluting 3-fold for each dilution step. Following the 48 h period, cell culture medium is removed from plated cells and cells are synchronized with 200 μL/well of complete cell culture medium (described above), supplemented with 5 μM forskolin (Tocris®) and 1 mM beetle luciferin (Promega®). Immediately following synchronization, 1 μL of compound dilution is added to each well. Plates are sealed, shaken briefly, and gene expression was monitored by measuring luminescence (Tecan® Infinite M200 or Tecan® Infinite M200 Pro) continuously for a minimum of 3 days at 35° C. Raw luminescence data (counts) are first analyzed using Multicycle™ software (Actimetrics, Inc.) to determine the amplitude (amp), period, and phase (phz) for each compound concentration. The period length for control wells (i.e. no compound, DMSO only) should be 26-30 h. Amp data are then plotted against the logarithm compound concentration (M) and analyzed by nonlinear regression analysis to determine the EC50.

With `CC(O)(CN1CCCN(C2CCC2)C1=O)Cn1c2ccc(F)cc2c2cc(F)ccc21` (stereo not shown) [Compound 81, 1-cyclobutyl-3-(3-(3,6-difluoro-9H-carbazol-9-yl)-2-hydroxy-2-methylpropyl)tetrahydropyrimidin-2(1H)-one] as the molecule, how does the EC50 read?
Its EC50 is 816 nM.

`CC(O)(CN1CCCN(C2CCCCC2)C1=O)Cn1c2ccc(F)cc2c2cc(F)ccc21` (stereo not shown) [Compound 82, 1-cyclohexyl-3-(3-(3,6-difluoro-9H-carbazol-9-yl)-2-hydroxy-2-methylpropyl)tetrahydropyrimidin-2(1H)-one] was tested. Which EC50 did it give?
Its EC50 is 1190 nM.

Which EC50 does the source give for `O=C1N(CC(O)Cn2c3ccc(F)cc3c3cc(F)ccc32)CCCN1C1CC1` (stereo not shown) [Compound 83, 1-cyclopropyl-3-(3-(3,6-difluoro-9H-carbazol-9-yl)-2-hydroxypropyl)tetrahydropyrimidin-2(1H)-one] here?
Its EC50 is 147 nM.

With `O=C1NCCN1CC(O)Cn1c2ccccc2c2ccccc21` (stereo not shown) [Compound 84, 1-(3-(9H-carbazol-9-yl)-2-hydroxypropyl)imidazolidin-2-one] as the molecule, how does the EC50 read?
Its EC50 is 325 nM.

With `CC1CN(CC(O)Cn2c3ccc(F)cc3c3cc(F)ccc32)C(=O)N1` (stereo not shown) [Compound 85, 1-(3-(3,6-difluoro-9H-carbazol-9-yl)-2-hydroxypropyl)-4-methylimidazolidin-2-one] as the molecule, how does the EC50 read?
The EC50 was 667 nM.

How did the EC50 turn out when `CCN1CCCN(CC(O)Cn2c3ccc(F)cc3c3cc(F)ccc32)C1=O` (stereo not shown) [Compound 86, 1-(3-(3,6-difluoro-9H-carbazol-9-yl)-2-hydroxypropyl)-3-ethyltetrahydropyrimidin-2(1H)-one] was run?
The EC50 was 497 nM.

`CCN1CCCN(CC(C)(O)Cn2c3ccc(F)cc3c3cc(F)ccc32)C1=O` (stereo not shown) [Compound 87, 1-(3-(3,6-difluoro-9H-carbazol-9-yl)-2-hydroxy-2-methylpropyl)-3-ethyltetrahydropyrimidin-2(1H)-one] was tested. Which EC50 did it give?
The EC50 was 317 nM.

`O=C1N(CC(O)Cn2c3ccc(F)cc3c3cc(F)ccc32)CCN1C1CCCCC1` (stereo not shown) [Compound 88, 1-cyclohexyl-3-(3-(3,6-difluoro-9H-carbazol-9-yl)-2-hydroxypropyl)imidazolidin-2-one] was tested. Which EC50 did it give?
Its EC50 is 310 nM.

How did the EC50 turn out when `O=C1N(CC(O)Cn2c3ccc(F)cc3c3cc(F)ccc32)CCN1c1ccccc1` (stereo not shown) [Compound 89, 1-(3-(3,6-difluoro-9H-carbazol-9-yl)-2-hydroxypropyl)-3-phenylimidazolidin-2-one] was run?
The EC50 was 438 nM.

With `CC(C)N1CCN(CC(O)Cn2c3ccc(F)cc3c3cc(F)ccc32)C1=O` (stereo not shown) [Compound 90, 1-(3-(3,6-difluoro-9H-carbazol-9-yl)-2-hydroxypropyl)-3-isopropylimidazolidin-2-one] as the molecule, how does the EC50 read?
The EC50 was 605 nM.

`O=C1N(CC(O)Cn2c3ccc(F)cc3c3cc(F)ccc32)CCN1C1CCCC1` (stereo not shown) [Compound 91, 1-cyclopentyl-3-(3-(3,6-difluoro-9H-carbazol-9-yl)-2-hydroxypropyl)imidazolidin-2-one] was tested. Which EC50 did it give?
Its EC50 is 621 nM.

How did the EC50 turn out when `O=C1N(CC(O)Cn2c3ccc(F)cc3c3cc(F)ccc32)CCN1C1CC1` (stereo not shown) [Compound 92, 1-cyclopropyl-3-(3-(3,6-difluoro-9H-carbazol-9-yl)-2-hydroxypropyl)imidazolidin-2-one] was run?
The EC50 was 527 nM.

Which EC50 does the source give for `O=C1N(CC(O)Cn2c3ccc(F)cc3c3cc(F)ccc32)CCN1C1CCC1` (stereo not shown) [Compound 93, 1-cyclobutyl-3-(3-(3,6-difluoro-9H-carbazol-9-yl)-2-hydroxypropyl)imidazolidin-2-one] here?
Its EC50 is 129 nM.

`CC1CN(C)C(=O)N(CC(O)Cn2c3ccc(F)cc3c3cc(F)ccc32)C1` (stereo not shown) [Compound 94, 1-(3-(3,6-difluoro-9H-carbazol-9-yl)-2-hydroxypropyl)-3,5-dimethyltetrahydropyrimidin-2(1H)-one] was tested. Which EC50 did it give?
The EC50 was 833 nM.

How did the EC50 turn out when `CCN1CCCN(CC(O)Cn2c3ccccc3c3ccccc32)C1=O` (stereo not shown) [Compound 95, 1-(3-(9H-carbazol-9-yl)-2-hydroxypropyl)-3-ethyltetrahydropyrimidin-2(1H)-one] was run?
Its EC50 is 568 nM.

How did the EC50 turn out when `O=C1N(CC(O)Cn2c3ccccc3c3ccccc32)CCN1C1CCC1` (stereo not shown) [Compound 96, 1-(3-(9H-carbazol-9-yl)-2-hydroxypropyl)-3-cyclobutylimidazolidin-2-one] was run?
Its EC50 is 493 nM.

`O=C1N(CC(O)Cn2c3ccccc3c3ccccc32)CCN1C1CC1` (stereo not shown) [Compound 97, 1-(3-(9H-carbazol-9-yl)-2-hydroxypropyl)-3-cyclopropylimidazolidin-2-one] was tested. Which EC50 did it give?
Its EC50 is 315 nM.

For `CC(C)N1CCN(CC(O)Cn2c3ccccc3c3ccccc32)C1=O` (stereo not shown) [Compound 98, 1-(3-(9H-carbazol-9-yl)-2-hydroxypropyl)-3-isopropylimidazolidin-2-one], which EC50 is on record?
The EC50 was 269 nM.

How did the EC50 turn out when `O=C1N(CC(O)Cn2c3ccccc3c3ccccc32)CCCN1C1CC1` (stereo not shown) [Compound 99, 1-(3-(9H-carbazol-9-yl)-2-hydroxypropyl)-3-cyclopropyltetrahydropyrimidin-2(1H)-one] was run?
Its EC50 is 555 nM.

How did the EC50 turn out when `O=C1N(CC(O)Cn2c3ccccc3c3ccccc32)CCCN1C1CCC1` (stereo not shown) [Compound 100, 1-(3-(9H-carbazol-9-yl)-2-hydroxypropyl)-3-cyclobutyltetrahydropyrimidin-2(1H)-one] was run?
The EC50 was 721 nM.

With `CC1CCN(CC(O)Cn2c3ccc(F)cc3c3cc(F)ccc32)C(=O)N1C` (stereo not shown) [Compound 101, 1-(3-(3,6-difluoro-9H-carbazol-9-yl)-2-hydroxypropyl)-3,4-dimethyltetrahydropyrimidin-2(1H)-one] as the molecule, how does the EC50 read?
The EC50 was 417 nM.

Which EC50 does the source give for `CC(O)(CN1Cc2ccccc2NC1=O)Cn1c2ccc(F)cc2c2cc(F)ccc21` (stereo not shown) [Compound 102, 3-(3-(3,6-difluoro-9H-carbazol-9-yl)-2-hydroxy-2-methylpropyl)-3,4-dihydroquinazolin-2(1H)-one] here?
The EC50 was 455 nM.

With `O=C1Nc2ccccc2CN1CC(O)Cn1c2ccc(F)cc2c2cc(F)ccc21` (stereo not shown) [Compound 103, 3-(3-(3,6-difluoro-9H-carbazol-9-yl)-2-hydroxypropyl)-3,4-dihydroquinazolin-2(1H)-one] as the molecule, how does the EC50 read?
Its EC50 is 940 nM.

With `O=C1[C@@H]2CC[C@@H](C2)N1C[C@H](O)Cn1c2ccc(F)cc2c2cc(F)ccc21` [Compound 104, (1S,4R)-2-((R)-3-(3,6-difluoro-9H-carbazol-9-yl)-2-hydroxypropyl)-2-azabicyclo[2.2.1]heptan-3-one] as the molecule, how does the EC50 read?
The EC50 was 115 nM.

How did the EC50 turn out when `O=C1[C@H]2CC[C@H](C2)N1C[C@H](O)Cn1c2ccc(F)cc2c2cc(F)ccc21` [Compound 105, (1R,4S)-2-((R)-3-(3,6-difluoro-9H-carbazol-9-yl)-2-hydroxypropyl)-2-azabicyclo[2.2.1]heptan-3-one] was run?
The EC50 was 54 nM.

How did the EC50 turn out when `O=C1[C@@H]2CC[C@@H](C2)N1C[C@H](O)Cn1c2ccccc2c2ccccc21` [Compound 106, (1S,4R)-2-((R)-3-(9H-carbazol-9-yl)-2-hydroxypropyl)-2-azabicyclo[2.2.1]heptan-3-one] was run?
Its EC50 is 220 nM.

`O=C1[C@H]2CC[C@H](C2)N1C[C@H](O)Cn1c2ccccc2c2ccccc21` [Compound 107, (1R,4S)-2-((R)-3-(9H-carbazol-9-yl)-2-hydroxypropyl)-2-azabicyclo[2.2.1]heptan-3-one] was tested. Which EC50 did it give?
Its EC50 is 89 nM.

Which EC50 does the source give for `O=C1[C@H]2CC[C@H](C2)N1C[C@@H](O)Cn1c2ccccc2c2ccccc21` [Compound 108, (1R,4S)-2-((S)-3-(9H-carbazol-9-yl)-2-hydroxypropyl)-2-azabicyclo[2.2.1]heptan-3-one] here?
Its EC50 is 750 nM.

How did the EC50 turn out when `C[C@@H]1CCC(=O)N1C[C@H](O)Cn1c2ccc(F)cc2c2cc(F)ccc21` [Compound 109, (R)-1-((R)-3-(3,6-difluoro-9H-carbazol-9-yl)-2-hydroxypropyl)-5-methylpyrrolidin-2-one] was run?
Its EC50 is 226 nM.

For `C[C@H]1CCC(=O)N1C[C@H](O)Cn1c2ccc(F)cc2c2cc(F)ccc21` [Compound 110, (S)-1-((R)-3-(3,6-difluoro-9H-carbazol-9-yl)-2-hydroxypropyl)-5-methylpyrrolidin-2-one], which EC50 is on record?
Its EC50 is 830 nM.

Which EC50 does the source give for `C[C@@H]1CCC(=O)N1C[C@H](O)Cn1c2ccccc2c2ccccc21` [Compound 111, (R)-1-((R)-3-(9H-carbazol-9-yl)-2-hydroxypropyl)-5-methylpyrrolidin-2-one] here?
The EC50 was 95 nM.

With `C[C@H]1CCC(=O)N1C[C@H](O)Cn1c2ccccc2c2ccccc21` [Compound 112, (S)-1-((R)-3-(9H-carbazol-9-yl)-2-hydroxypropyl)-5-methylpyrrolidin-2-one] as the molecule, how does the EC50 read?
Its EC50 is 470 nM.

`C[C@@H]1CCC(=O)N1C[C@@H](O)Cn1c2ccccc2c2ccccc21` [Compound 113, (R)-1-((S)-3-(9H-carbazol-9-yl)-2-hydroxypropyl)-5-methylpyrrolidin-2-one] was tested. Which EC50 did it give?
The EC50 was 948 nM.

How did the EC50 turn out when `C[C@H]1CCN(C[C@H](O)Cn2c3ccc(F)cc3c3cc(F)ccc32)C1=O` [Compound 115, (S)-1-((R)-3-(3,6-difluoro-9H-carbazol-9-yl)-2-hydroxypropyl)-3-methylpyrrolidin-2-one] was run?
The EC50 was 500 nM.

`C[C@@H]1CCN(C[C@H](O)Cn2c3ccc(F)cc3c3cc(F)ccc32)C1=O` [Compound 116, (R)-1-((R)-3-(3,6-difluoro-9H-carbazol-9-yl)-2-hydroxypropyl)-3-methylpyrrolidin-2-one] was tested. Which EC50 did it give?
Its EC50 is 311 nM.

For `C[C@H]1CCN(C[C@H](O)Cn2c3ccccc3c3ccccc32)C1=O` [Compound 117, (S)-1-((R)-3-(9H-carbazol-9-yl)-2-hydroxypropyl)-3-methylpyrrolidin-2-one], which EC50 is on record?
The EC50 was 188 nM.

For `C[C@@H]1CCN(C[C@H](O)Cn2c3ccccc3c3ccccc32)C1=O` [Compound 118, (R)-1-((R)-3-(9H-carbazol-9-yl)-2-hydroxypropyl)-3-methylpyrrolidin-2-one], which EC50 is on record?
Its EC50 is 120 nM.
